From patent US20220264878A1, “HERBICIDAL COMPOSITION CONTAINING R-TYPE PYRIDYLOXY CARBOXYLIC ACID DERIVATIVE AND USE THEREOF” (Qingdao Kingagroot Chemical Compound Co., Ltd., priority 2019, published 2022)

How the values were obtained:
Assay type in all cases: in vivo
Capsella bursa-pastoris = assay: Post-emergence foliage spray, pot culture, fresh weight inhibition (Tables 151-206; 20 days)
Description: (§1) The above weeds were cultivated by a pot culture method. […] Full and uniform weed seeds were selected, soaked in warm water at 25° C. for 6 hours, and germinated in a 28° C. biochemical incubator (darkness). The weed seeds that had just germinatedwere evenly placed on the surface of the soil and then covered with 0.5-1 cm soil according to the sizes of seeds.
(§2) The technical materials were all dissolved in acetone, and diluted with an aqueous solution containing 0.1% emulsifier Tween-80. The dilution is performed as required.
(§3) A ratio of the active ingredient A to the active ingredient B and amounts thereof in each group depends on the characteristics and toxicity of the two agents, as well as the main application purpose of a corresponding formulation. Based on the pre-tests in this study, the dosage of the active ingredient A and B applied alone and in combination were shown in the tables. Water containing the solvent and emulsifier same with the above groups but free of the agents was used as a blank control.
(§4) In the stage of weeds with 3˜4 leaves, the weeds were thinned out to maintain 15 weeds per pot and 45 weeds for each treatment, then continued to be cultured to 4˜5 leaves stage of grassy weeds, 5˜6 leaves stage of broadleaf weeds, and treated.
(§5) The well-cultured weeds were evenly placed on a platform with an area of 0.5 m^2, and a solution of agents was sprayed on the stems and leaves thereof by the 3WP-2000-type walking spray tower at a dosage of 450 kg/ha and at a spray pressure of 0.3 MPa. After all the solution was sprayed, the valve was closed. After 30 seconds, the door of the spray tower was opened, and the nutritional bowl was taken out. Then the valve was opened, and the spray tube was cleaned by spraying 50 ml of water.
(§6) A pot-culture method was employed. For the cultivation of weeds, please refer to the Section 1.1), and “Pesticide guidelines for laboratory bioactivity tests—herbicides”. As to a method for applying agents, please refer to the section 2.3.2), that is, a foliage treatment was employed. After the treatment, the weeds were routinely cultured in a greenhouse.
(§7) A method for investigating absolute number was employed, wherein whole seedlings of survival weeds were cut off with a blade along the soil surface, and the fresh weight of the weeds was weighed with an analytical balance. For dead weeds, the fresh weight thereof was zero.
(§8) Wherein, in the formula, X represented the fresh weight inhibition rate of the active ingredient A in a dosage of P, and Y represented the fresh weight inhibition rate of the active ingredient B in a dosage of Q.

Amaranthus retroflexus = assay: as above
Description: as §1, §2, §3, §4, §5, §6, §7, §8

Alopecurus japonicus = assay: as above
Description: (§9) Table 151-206: Digitaria sanguinalis, Amaranthus retroflexus, Conyza Canadensis, Capsella bursa-pastoris, Eleusine indica were collected in Huangdao of Shandong Province, Sinapis arvensis were collected in Sixian of Anhui Province, Alopecurus japonicus were collected in Tianchang of Anhui Province, Veronica didyma were collected in Siyang of Jiangsu Province.
as §1
(§10) The culture was carried out in a controllable sunlight greenhouse at 20 to 30° C., in natural light, and relative humidity of 57% to 72%.
as §2, §3
(§11) Table 1-48, 51-98, 101-148, 151-206: […] per treatment, that is, a total of 60 weeds were treated in one treatment.
as §4, with “Table 151-206: The agents were used for only once in the experiment. In” for “In”
as §5, §6, §7
(§12) Table 151-206: The investigation was performed after 20 days of the treatment for only once.
(§13) Theoretical fresh weight inhibition rate of a combination of two active ingredients in each group was calculated by the Gowing method (E0=X+Y−X*Y/100), and then compared with an actually measured inhibition rate (E), thereby effect of the combination (hereafter referred to as combined effect) on weeds was evaluated: the value of E-E0, which was greater than 10%, corresponded to a synergistic effect, the value of E-E0, which was less than −10%, corresponded to an antagonistic effect, and the value of E-E0, which was from −10% to 10%, corresponded to an additional effect.

Sinapis arvensis = assay: as above
Description: as §9, §1, §10, §2, §3, §11
as §4, with “Table 151-206: The agents were used for only once in the experiment. In” for “In”
as §5, §6, §7, §12, §13

Eleusine indica [1] = assay: as above
Description: as §9, §1, §10, §2, §3, §11
as §4, with “Table 151-206: The agents were used for only once in the experiment. In” for “In”
as §5, §6, §7, §12, §13

Digitaria sanguinalis = assay: as above
Description: as §9, §1, §10, §2, §3, §11
as §4, with “Table 151-206: The agents were used for only once in the experiment. In” for “In”
as §5, §6, §7, §12, §13

Chloris virgata = assay: Post-emergence foliage spray, pot culture, fresh weight inhibition (Tables 1-48, 51-98, 101-148; 24 days)
Text: (§14) Table 1-48, 51-98, 101-148: Echinochloa crusgalli var. zelayensis, Eclipta prostrate, Galium aparine L., Alopecurus aequalis, Alopecurus japonicus, Lindernia procumbens, Veronica persica^1, Malachium aquaticum, Beckmannia syzigachne, Stellaria media were collected in Huai'an of Jiangsu Province; Commelina communis, Sonchus arvensis, Setaria glauca, Chloris virgata, Setaria faberi, Sonchus oleraceus L., Echinochloa oryzoides, Cirsium setosum, Xanthium strumarium were collected in Qiqiha'er of Heilongjiang Province; Sinapis arvensis, Veronica persica^2 were collected in Zhumadian of Henan Province; Ludwigia prostrate, Ammannia arenaria were collected in Zhuji of Zhejiang Province; Amaranthus retrojlexus, Descurainia sophia, Digitaria sanguinalis, Setaria viridis, Conyza Canadensis, Capsella bursa-pastoris, Eleusine indica, Ipomoea purpurea, Abutilon theophrasti, Chenopodium album, Acalypha australis, Solanum nigrum were collected in Qingdao of Shandong Province; Echinochloa caudate were collected in Pingluo of Ningxia Province.
as §1, §10, §2, §3, §11
as §4, with “Table 1-48, 51-98, 101-148: The agents were used for only once in the experiment. In” for “In”, “5˜6” for “4˜5”, “6˜7” for “5˜6”
as §5, §6, §7
(§15) Table 1-48, 51-98, 101-148, 207-216: The investigation was performed after 24 days of the treatment for only once.

Eleusine indica [2] = assay: as above
Text: as §14, §1, §10, §2, §3, §11
as §4, with “Table 1-48, 51-98, 101-148: The agents were used for only once in the experiment. In” for “In”, “5˜6” for “4˜5”, “6˜7” for “5˜6”
as §5, §6, §7, §15

[3] = B alone 75 g a.i./ha, 20 days after treatment
[4] = B alone 150 g a.i./ha, 20 days after treatment
[5] = B alone 300 g a.i./ha, 20 days after treatment
[6] = B alone 600 g a.i./ha, 20 days after treatment

CP(=O)(O)CCC(N)C(=O)O (stereo not shown) [glufosinate ammonium]
Control effect (%) of B applied alone in corresponding dose (Capsella bursa-pastoris; B 75 g a.i./ha, 20 days): 2.1%
Control effect (%) of B applied alone in corresponding dose (Capsella bursa-pastoris; B 150 g a.i./ha, 20 days): 8.7%
Control effect (%) of B applied alone in corresponding dose (Capsella bursa-pastoris; B 300 g a.i./ha, 20 days): 15.3%
Control effect (%) of B applied alone in corresponding dose (Capsella bursa-pastoris; B 600 g a.i./ha, 20 days): 34.5%
Control effect (%) of B applied alone in corresponding dose (Capsella bursa-pastoris; [3]): 2.1%
Control effect (%) of B applied alone in corresponding dose (Capsella bursa-pastoris; [4]): 8.7%
Control effect (%) of B applied alone in corresponding dose (Capsella bursa-pastoris; [5]): 15.3%
Control effect (%) of B applied alone in corresponding dose (Capsella bursa-pastoris; [6]): 34.5%
Control effect (%) of B applied alone in corresponding dose (Amaranthus retroflexus; B 75 g a.i./ha, 20 days): 10.2%
Control effect (%) of B applied alone in corresponding dose (Amaranthus retroflexus; B 150 g a.i./ha, 20 days): 19.6%
Control effect (%) of B applied alone in corresponding dose (Amaranthus retroflexus; B 300 g a.i./ha, 20 days): 28.6%
Control effect (%) of B applied alone in corresponding dose (Amaranthus retroflexus; B 600 g a.i./ha, 20 days): 54.1%
Control effect (%) of B applied alone in corresponding dose (Amaranthus retroflexus; [3]): 10.2%
Control effect (%) of B applied alone in corresponding dose (Amaranthus retroflexus; [4]): 19.6%
Control effect (%) of B applied alone in corresponding dose (Amaranthus retroflexus; [5]): 28.6%
Control effect (%) of B applied alone in corresponding dose (Amaranthus retroflexus; [6]): 54.1%

O=C(O)CNCP(=O)(O)O [glyphosate]
Control effect (%) of B applied alone in corresponding dose (Alopecurus japonicus; B 75 g a.i./ha, 20 days): 7.6%
Control effect (%) of B applied alone in corresponding dose (Alopecurus japonicus; B 150 g a.i./ha, 20 days): 19.5%
Control effect (%) of B applied alone in corresponding dose (Alopecurus japonicus; B 300 g a.i./ha, 20 days): 30.8%
Control effect (%) of B applied alone in corresponding dose (Alopecurus japonicus; B 600 g a.i./ha, 20 days): 66.9%
Control effect (%) of B applied alone in corresponding dose (Alopecurus japonicus; [3]): 7.6%
Control effect (%) of B applied alone in corresponding dose (Alopecurus japonicus; [4]): 19.5%
Control effect (%) of B applied alone in corresponding dose (Alopecurus japonicus; [5]): 30.8%
Control effect (%) of B applied alone in corresponding dose (Alopecurus japonicus; [6]): 66.9%
Control effect (%) of B applied alone in corresponding dose (Sinapis arvensis; B 75 g a.i./ha, 20 days): 2.5%
Control effect (%) of B applied alone in corresponding dose (Sinapis arvensis; B 150 g a.i./ha, 20 days): 9.4%
Control effect (%) of B applied alone in corresponding dose (Sinapis arvensis; B 300 g a.i./ha, 20 days): 19.8%
Control effect (%) of B applied alone in corresponding dose (Sinapis arvensis; B 600 g a.i./ha, 20 days): 37.2%
Control effect (%) of B applied alone in corresponding dose (Sinapis arvensis; [3]): 2.5%
Control effect (%) of B applied alone in corresponding dose (Sinapis arvensis; [4]): 9.4%
Control effect (%) of B applied alone in corresponding dose (Sinapis arvensis; [5]): 19.8%
Control effect (%) of B applied alone in corresponding dose (Sinapis arvensis; [6]): 37.2%
Control effect (%) of B applied alone in corresponding dose (Eleusine indica [1]; B 75 g a.i./ha, 20 days): 6.9%
Control effect (%) of B applied alone in corresponding dose (Eleusine indica [1]; B 150 g a.i./ha, 20 days): 13.6%
Control effect (%) of B applied alone in corresponding dose (Eleusine indica [1]; B 300 g a.i./ha, 20 days): 21.3%
Control effect (%) of B applied alone in corresponding dose (Eleusine indica [1]; B 600 g a.i./ha, 20 days): 68.9%
Control effect (%) of B applied alone in corresponding dose (Eleusine indica [1]; [3]): 6.9%
Control effect (%) of B applied alone in corresponding dose (Eleusine indica [1]; [4]): 13.6%
Control effect (%) of B applied alone in corresponding dose (Eleusine indica [1]; [5]): 21.3%
Control effect (%) of B applied alone in corresponding dose (Eleusine indica [1]; [6]): 68.9%
Control effect (%) of B applied alone in corresponding dose (Digitaria sanguinalis; B 75 g a.i./ha, 20 days): 12.3%
Control effect (%) of B applied alone in corresponding dose (Digitaria sanguinalis; B 150 g a.i./ha, 20 days): 24.6%
Control effect (%) of B applied alone in corresponding dose (Digitaria sanguinalis; B 300 g a.i./ha, 20 days): 43.5%
Control effect (%) of B applied alone in corresponding dose (Digitaria sanguinalis; B 600 g a.i./ha, 20 days): 76.4%
Control effect (%) of B applied alone in corresponding dose (Digitaria sanguinalis; [3]): 12.3%
Control effect (%) of B applied alone in corresponding dose (Digitaria sanguinalis; [4]): 24.6%
Control effect (%) of B applied alone in corresponding dose (Digitaria sanguinalis; [5]): 43.5%
Control effect (%) of B applied alone in corresponding dose (Digitaria sanguinalis; [6]): 76.4%

CS(=O)(=O)c1ccc(C(=O)C2C(=O)CCCC2=O)c([N+](=O)[O-])c1 [mesotrione]
Control effect (%) of B applied alone in corresponding dose (Chloris virgata; B 15 g a.i./ha): 6.5%
Control effect (%) of B applied alone in corresponding dose (Chloris virgata; B 30 g a.i./ha): 13.4%
Control effect (%) of B applied alone in corresponding dose (Chloris virgata; B 60 g a.i./ha): 38.3%
Control effect (%) of B applied alone in corresponding dose (Chloris virgata; B 120 g a.i./ha): 75.2%
Control effect (%) of B applied alone in corresponding dose (Eleusine indica [2]; Table 82, 15 g a.i./ha): 4.0%
Control effect (%) of B applied alone in corresponding dose (Eleusine indica [2]; Table 82, 30 g a.i./ha): 10.9%
Control effect (%) of B applied alone in corresponding dose (Eleusine indica [2]; Table 82, 60 g a.i./ha): 36.9%
Control effect (%) of B applied alone in corresponding dose (Eleusine indica [2]; Table 82, 120 g a.i./ha): 75.0%

CS(=O)(=O)c1ccc(C(=O)C2C(=O)CCCC2=O)c(Cl)c1COCC(F)(F)F [tembotrione]
Control effect (%) of B applied alone in corresponding dose (Chloris virgata; B 3.75 g a.i./ha): 4.0%
Control effect (%) of B applied alone in corresponding dose (Chloris virgata; B 7.5 g a.i./ha): 12.3%
Control effect (%) of B applied alone in corresponding dose (Chloris virgata; B 15 g a.i./ha): 41.0%
Control effect (%) of B applied alone in corresponding dose (Chloris virgata; B 30 g a.i./ha): 73.4%
Control effect (%) of B applied alone in corresponding dose (Eleusine indica [2]; Table 83, 3.75 g a.i./ha): 5.4%
Control effect (%) of B applied alone in corresponding dose (Eleusine indica [2]; Table 83, 7.5 g a.i./ha): 12.3%
Control effect (%) of B applied alone in corresponding dose (Eleusine indica [2]; Table 83, 15 g a.i./ha): 39.7%
Control effect (%) of B applied alone in corresponding dose (Eleusine indica [2]; Table 83, 30 g a.i./ha): 73.1%
